Experimental data: patent publication US12728116B2, “Methods of treating multiple sclerosis” (Vanda Pharmaceuticals Inc., priority 2021, dated 2026)

Assays:
[1] = tested on: adult subjects with relapsing MS; assay: Premature treatment discontinuation; format: in vivo
Procedure: A total of 1468 subjects were screened. Of those, 1133 subjects were randomized (567 to ponesimod 20 mg and 566 to teriflunomide 14 mg) across 162 sites in 28 countries, and 1131 subjects received at least one dose of study drug. The disposition of subjects is summarized in Table 1 and a summary of reasons (primary reason) for treatment discontinuation are shown in Table 2. Overall treatment and study discontinuation were balanced across both treatment arms. A total of 6.5% and 2.5% of the subjects discontinued due to AEs or tolerability related reasons in ponesimod 20 mg and teriflunomide 14 mg, respectively, while 1.9% and 4.3% discontinued due to efficacy related reasons. There were 2 deaths reported during the study—both on teriflunomide 14 mg.

[2] = tested on: adult subjects with relapsing MS; assay: 12-lead ECG heart rate and first-dose effects on Day 1; format: in vivo, human
Procedure: As per up-titration regimen, the dose of ponesimod on Day 1 is 2 mg.

[3] = tested on: adult subjects with relapsing MS; assay: Treatment-emergent adverse events (Safety Set); format: in vivo, human; settings: for AESI effect on heart rate and rhythm (including hypotension) on Day 1: subjects with at least one AE, %: Day 1 (ponesimod dose 2 mg);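 on all read-outs here: safety Set comprises every randomized subject given one or more doses, analysed by the treatment actually received rather than the assigned arm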
Procedure: The Safety Set (SAF) included all randomized subjects who received at least one dose of study treatment. Subjects were analyzed based on actual treatment taken, not randomized treatment.

[4] = tested on: adult subjects with relapsing MS; assay: Time to first 12-week / 24-week confirmed disability accumulation (CDA) on EDSS; format: in vivo, human
Procedure: Secondary efficacy variables and testing strategy: Four secondary efficacy endpoints were analyzed as per the statistical testing strategy outlined in FIG. 1. • Change from baseline to Week 108 in fatigue-related symptoms as measured by the symptoms domain of the FSIQ-RMS patient-reported outcome [Fatigue] • Cumulative number of combined unique active lesions from baseline to Week 108 on brain MRI [CUALs] • Time to first 12-week confirmed disability accumulation (CDA) from baseline to EOS on Expanded Disability Status Scale (EDSS) [12-week CDA] • Time to first 24-week CDA from baseline to EOS on EDSS [24-week CDA]
A 12-week CDA is an increase of at least 1.5 in EDSS for subjects with a baseline EDSS score of 0.0 or an increase of at least 1.0 in EDSS for subjects with a baseline EDSS score of 1.0 to 5.0, or an increase of at least 0.5 in EDSS for subjects with a baseline EDSS score≥5.5 which is to be confirmed after 12 weeks.
All EDSS measurements (with or without relapse, at a scheduled or unscheduled visit) were used to determine the onset of disability accumulation. However, EDSS scores used for confirmation of disability accumulation were obtained at a scheduled visit (i.e., unscheduled visits cannot be used as confirmatory visits) outside any ongoing relapse. In this context, relapse duration is defined as period between start and end dates if available and limited to 90 days from onset if end date is not available or duration is longer than 90 days.
In order to confirm that the EDSS increase is persistent, all EDSS measurements between the onset and the 12-week EDSS confirmation (minus 7-day visit time-window) need to show an increase in EDSS, meeting the criteria for accumulation of disability as defined above.
A 24-week CDA is an increase of at least 1.5 in EDSS for subjects with a baseline EDSS score of 0.0 or an increase of at least 1.0 in EDSS for subjects with a baseline EDSS score of 1.0 to 5.0, or an increase of at least 0.5 in EDSS for subjects with a baseline EDSS score≥5.5 which is to be confirmed after 24 weeks.
In order to confirm that the EDSS increase is persistent, all EDSS measurements between the onset and the 24-week EDSS confirmation (minus 7-day visit time-window) need to show an increase in EDSS, meeting the criteria for accumulation of disability as defined above.

[5] = ponesimod 20 mg, teriflunomide 14 mg
[6] = treatment-emergent AESI, Safety Set
[7] = treatment-emergent AESI, Safety Set, listed as ponesimod
[8] = treatment-emergent, Safety Set, listed as ponesimod
[9] = ponesimod 20 mg vs teriflunomide 14 mg, not statistically significant

In the case of `CCC/N=C1\S/C(=C\c2ccc(OC[C@H](O)CO)c(Cl)c2)C(=O)N1c1ccccc1C` [Ponesimod, (R)-5-[3-chloro-4-(2,3-dihydroxy-propoxy)-benz[Z]ylidene]-2-([Z]-propylimino)-3-o-tolyl-thiazolidin-4-one], the “Premature discontinuation: Physician decision, Adverse event, %” value ([1]; Safety Set) is reported as “(5.1) %”, the “Premature discontinuation: Subject decision, Tolerability related, %” value ([1]; Safety Set) is reported as “(1.4) %” and the “Subjects discontinued due to AEs or tolerability related reasons” value [1, 5] is reported as 6.5%. The “2nd or higher degree AV block” value ([2]; Day 1, first dose) was “No 2nd or higher degree AV block was observed”, the “Subjects meeting discharge criteria at 4 hours post-dose” value ([2]; Day 1, first dose) was “ca. 99%” and the “ECG HR effect: time of nadir post-dose” value ([2]; Day 1, ponesimod 2 mg) was 2 h. The “Mean heart rate change compared to pre-dose at 2-hours post dose” value ([2]; Day 1, 12-lead ECG, Safety Set) was −8.7 bpm, the “Subjects with asymptomatic post-dose HR≤40 bpm” value ([2]; Day 1, all with pre-treatment HR <55 bpm) was 3 and the “AESI effect on heart rate and rhythm (including hypotension) on Day 1: subjects with at least one AE, %” value ([3]; Safety Set) was “(2.1) %”. For the same molecule, the “AESI effect on heart rate and rhythm (including hypotension) on Day 1: subjects with at least one AE, %” value ([3]; Safety Set, listed as ponesimod) was 2.1%, the “Day 1 AESI PT Atrioventricular block first degree, %” value ([3]; Day 1, Safety Set) was “(0.5) %” and the “Day 1 AESI PT Bradycardia, %” value ([3]; Day 1, Safety Set) was “(0.7) %”. The “Day 1 AESI PT Bundle branch block left, %” value ([3]; Day 1, Safety Set) was “(0.2) %”, the “Day 1 AESI PT Bundle branch block right, %” value ([3]; Day 1, Safety Set) was “(0.2) %” and the “Day 1 AESI PT Defect conduction intraventricular, %” value ([3]; Day 1, Safety Set) was “(0.4) %”. For the same molecule, the “Day 1 AESI PT Sinus arrhythmia, %” value ([3]; Day 1, Safety Set) was “(0.2) %”, the “Day 1 AESI PT Sinus bradycardia, %” value ([3]; Day 1, Safety Set) was “(0.2) %” and the “TEAE ALT increased, subjects” value [3, 5] was 19.5%. The “TEAE headache, subjects” value [3, 5] was 11.5%, the “TEAE nasopharyngitis, subjects” value [3, 5] was 19.3% and the “TEAE upper respiratory tract infection, subjects” value [3, 5] was 10.6%. The “AESI category Effect on heart rate and rhythm (including aypotension), %” value [3, 6] was “(5.1) %”, the “AESI category Hepatobiliary disorders/Liver enzyme abnormality, %” value [3, 6] was “(25.7) %” and the “AESI category Herpetic infection, %” value [3, 6] was “(4.8) %”. For the same molecule, the “AESI category Hypertension, %” value [3, 6] was “(10.1) %”, the “AESI category Macular edema, %” value [3, 6] was “(1.1) %” and the “AESI category Non-skin malignancy, %” value [3, 6] was “(0.2) %”. For the same molecule, the “AESI category Pulmonary events, %” value [3, 6] was “(8.0) %”, the “AESI category Seizure, %” value [3, 6] was “(1.4) %” and the “AESI category Skin malignancy, %” value [3, 6] was “(0.9) %”. For the same molecule, the “AESI category Hepatobiliary disorders/Liver enzyme abnormality, %” value [3, 7] was 25.7%, the “AESI category Hypertension, %” value [3, 7] was 10.1% and the “AESI category Pulmonary events, %” value [3, 7] was 8.0%. The “AESI category Infection, %” value ([3]; treatment-emergent AESI, only if reported as serious or severe, Safety Set) was “(1.6) %”, the “AEs leading to premature discontinuation, SOC Blood and lymphatic system disorders, %” value ([3]; treatment-emergent, Safety Set) was “(0.5) %” and the “AEs leading to premature discontinuation, SOC Cardiac disorders, %” value ([3]; treatment-emergent, Safety Set) was “(0.2) %”. For the same molecule, the “AEs leading to premature discontinuation, SOC Eye disorders, %” value ([3]; treatment-emergent, Safety Set) was “(0.9) %”, the “AEs leading to premature discontinuation, SOC Gastrointestinal disorders, %” value ([3]; treatment-emergent, Safety Set) was “(0.7) %” and the “AEs leading to premature discontinuation, SOC General disorders and administration site conditions, %” value ([3]; treatment-emergent, Safety Set) was “(0.5) %”. For the same molecule, the “AEs leading to premature discontinuation, SOC Hepatobiliary disorders, %” value ([3]; treatment-emergent, Safety Set) was “(0.5) %”, the “AEs leading to premature discontinuation, SOC Investigations, %” value ([3]; treatment-emergent, Safety Set) was “(2.1) %” and the “AEs leading to premature discontinuation, SOC Musculoskeletal and connective tissue disorders, %” value ([3]; treatment-emergent, Safety Set) was “(0.2) %”. For the same molecule, the “AEs leading to premature discontinuation, SOC Neoplasms benign, malignant and unspecified (incl cysts and polyps), %” value ([3]; treatment-emergent, Safety Set) was “(0.2) %”, the “AEs leading to premature discontinuation, SOC Nervous system disorders, %” value ([3]; treatment-emergent, Safety Set) was “(0.4) %” and the “AEs leading to premature discontinuation, SOC Pregnancy, puerperium and perinatal conditions, %” value ([3]; treatment-emergent, Safety Set) was “(0.5) %”. For the same molecule, the “AEs leading to premature discontinuation, SOC Psychiatric disorders, %” value ([3]; treatment-emergent, Safety Set) was “(0.2) %”, the “AEs leading to premature discontinuation, SOC Respiratory, thoracic and mediastinal disorders, %” value ([3]; treatment-emergent, Safety Set) was “(1.2) %” and the “AEs leading to premature discontinuation, SOC Skin and subcutaneous tissue disorders, %” value ([3]; treatment-emergent, Safety Set) was “(0.2) %”. The “AEs leading to premature discontinuation, SOC Social circumstances, %” value ([3]; treatment-emergent, Safety Set) was “(0.4) %”, the “AEs leading to premature discontinuation, SOC Vascular disorders, %” value ([3]; treatment-emergent, Safety Set) was “(0.5) %” and the “Subjects with at least one AE leading to study drug discontinuation, %” value ([3]; treatment-emergent, Safety Set) was “(8.7) %”. For the same molecule, the “Subjects with at least one AE, %” value ([3]; treatment-emergent, Safety Set) was “(88.8) %”, the “Subjects with at least one Drug-Related AE, %” value ([3]; treatment-emergent, Safety Set) was “(49.2) %” and the “Subjects with at least one Serious AE, %” value ([3]; treatment-emergent, Safety Set) was “(8.7) %”. For the same molecule, the “Subjects with at least one Severe AE, %” value ([3]; treatment-emergent, Safety Set) was “(6.9) %”, the “Subjects with at least one AE leading to study drug discontinuation, %” value [3, 8] was 8.7% and the “Subjects with at least one AE, %” value [3, 8] was 88.8%. The “Subjects with at least one Serious AE, %” value [3, 8] was 8.7%, the “Time to first 24-week CDA, hazard ratio ponesimod vs teriflunomide” value ([4]; Full Analysis Set, exploratory) was 0.84 and the “Time to first 12-week CDA, hazard ratio ponesimod vs teriflunomide” value ([4]; Full Analysis Set, stratified Cox regression) was 0.83. The “Reduction of risk of 12-week CDA compared to teriflunomide” value [4, 9] was 17%, the “Reduction of risk of 24-week CDA compared to teriflunomide” value [4, 9] was 16% and the “Subjects with a 12-week CDA up to EOS” value [4, 5] was 10.1%. For the same molecule, the “Subjects with a 24-week CDA up to EOS” value ([4]; ponesimod 20 mg, teriflunomide 14 mg, exploratory) was 8.1%.
